Data: ChEMBL document CHEMBL1201862, “PubChem BioAssay data set” (2004)
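Method: 48-hour compound exposure of cells in 96-well plates, five concentrations, linear interpolation of endpoints. GI50 is the concentration that inhibits growth by half.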 The source made the active and inactive calls. Cut-off read from the data, not from the text of the source: active = GI50 up to about 1.1 µM and inactive = higher.

How the values were obtained:
Test in all cases: inhibition of tumour cell growth, NCI panel, 48 h
IGROV-1 = tested on: IGROV-1
MDA-MB-435 = tested on: MDA-MB-435
SF-268 = tested on: SF-268
OVCAR-4 = tested on: OVCAR-4
Hs-578T = tested on: Hs-578T
BT-549 = tested on: BT-549
MDA-MB-231 = tested on: MDA-MB-231
HOP-62 = tested on: HOP-62
KM12 = tested on: KM12
HCC 2998 = tested on: HCC 2998
RPMI-8226 = tested on: RPMI-8226
SNB-75 = tested on: SNB-75
T47D = tested on: T47D
786-0 = tested on: 786-0
OVCAR-8 = tested on: OVCAR-8
EKVX = tested on: EKVX
UACC-257 = tested on: UACC-257
LOX IMVI = tested on: LOX IMVI
SW-620 = tested on: SW-620
NCI-H23 = tested on: NCI-H23

Measured: GI50

Cc1ccc(S(=O)(=O)Oc2cc(N)c3c(n2)CCC3)cc1
inactive: IGROV-1 > 100 µM | MDA-MB-435 > 100 µM | SF-268 > 100 µM | OVCAR-4 34.4 µM | Hs-578T > 100 µM | BT-549 > 100 µM | MDA-MB-231 > 100 µM | HOP-62 > 100 µM | KM12 > 100 µM | HCC 2998 > 100 µM | RPMI-8226 24.3 µM | SNB-75 > 100 µM | T47D 56.4 µM | 786-0 > 100 µM | OVCAR-8 > 100 µM | EKVX 42.3 µM | UACC-257 46.2 µM | LOX IMVI > 100 µM | SW-620 > 100 µM | NCI-H23 > 100 µM

O=c1[nH]c(=O)n(C/C=C/CO)nc1Br
inactive: IGROV-1 > 100 µM | MDA-MB-435 > 100 µM | SF-268 > 100 µM | OVCAR-4 > 100 µM | Hs-578T > 100 µM | BT-549 > 100 µM | MDA-MB-231 > 100 µM | HOP-62 > 100 µM | KM12 > 100 µM | HCC 2998 > 100 µM | RPMI-8226 > 100 µM | SNB-75 > 100 µM | T47D > 100 µM | 786-0 > 100 µM | OVCAR-8 > 100 µM | EKVX > 100 µM | UACC-257 > 100 µM | LOX IMVI > 100 µM | SW-620 > 100 µM | NCI-H23 > 100 µM

O=C(/C=C/c1csc(-c2ccccc2)n1)NCc1ccc(C(=O)NCCc2ccccc2)cc1
inactive: IGROV-1 36.6 µM | MDA-MB-435 > 100 µM | SF-268 5.94 µM | OVCAR-4 24.5 µM | Hs-578T 7.05 µM | BT-549 22.3 µM | MDA-MB-231 5.38 µM | HOP-62 2.64 µM | KM12 61.1 µM | HCC 2998 > 100 µM | RPMI-8226 > 100 µM | SNB-75 2.6 µM | T47D 41.2 µM | 786-0 8.63 µM | OVCAR-8 4.23 µM | EKVX 93.5 µM | UACC-257 27.2 µM | LOX IMVI 79.4 µM | SW-620 74.5 µM | NCI-H23 29.7 µM

O=c1sc2c(s1)-c1sc(=O)sc1SS2
inactive: IGROV-1 > 96.4 µM | MDA-MB-435 > 100 µM | SF-268 > 100 µM | OVCAR-4 > 100 µM | Hs-578T 81.7 µM | BT-549 > 100 µM | MDA-MB-231 > 100 µM | HOP-62 > 100 µM | KM12 > 100 µM | HCC 2998 > 100 µM | RPMI-8226 > 100 µM | SNB-75 7.71 µM | T47D > 100 µM | 786-0 > 100 µM | OVCAR-8 21.6 µM | EKVX > 76.2 µM | UACC-257 > 96.8 µM | LOX IMVI > 60.4 µM | SW-620 > 100 µM | NCI-H23 > 37.5 µM

CC[N+](C)(CC)CCC(O)(c1ccccc1)c1ccccc1
inactive: IGROV-1 > 100 µM | MDA-MB-435 > 100 µM | SF-268 > 100 µM | OVCAR-4 > 100 µM | Hs-578T > 100 µM | BT-549 > 100 µM | MDA-MB-231 > 100 µM | HOP-62 > 100 µM | KM12 > 100 µM | HCC 2998 > 100 µM | RPMI-8226 > 100 µM | SNB-75 > 100 µM | T47D > 100 µM | 786-0 > 100 µM | OVCAR-8 > 100 µM | EKVX > 100 µM | UACC-257 > 100 µM | LOX IMVI > 100 µM | SW-620 > 100 µM | NCI-H23 > 100 µM

COC(=O)C1=C(N)C2=C(N)Oc3ccccc3C2CC1=C(C#N)C#N (stereo not given)
inactive: IGROV-1 18.4 µM | MDA-MB-435 34.8 µM | SF-268 29.7 µM | OVCAR-4 30.2 µM | Hs-578T 27.9 µM | BT-549 23.4 µM | MDA-MB-231 17.5 µM | HOP-62 33.5 µM | KM12 15.7 µM | HCC 2998 17.9 µM | RPMI-8226 19.1 µM | SNB-75 18 µM | T47D 25.9 µM | 786-0 30.9 µM | OVCAR-8 23.9 µM | EKVX 29.1 µM | UACC-257 34.7 µM | LOX IMVI 18.8 µM | SW-620 33.7 µM | NCI-H23 19.6 µM

CC(=O)C1=C(C)N2C(=NC3=C(CCc4ccccc43)C2c2ccc(F)cc2)S1 (stereo not given)
inactive: IGROV-1 27.7 µM | MDA-MB-435 > 100 µM | SF-268 61 µM | OVCAR-4 56.1 µM | Hs-578T 42.8 µM | BT-549 93.5 µM | MDA-MB-231 22.3 µM | HOP-62 84.1 µM | KM12 > 100 µM | HCC 2998 83.9 µM | RPMI-8226 17.5 µM | SNB-75 25.6 µM | T47D 63.5 µM | 786-0 > 100 µM | OVCAR-8 62.5 µM | EKVX 24 µM | UACC-257 79.4 µM | LOX IMVI 44.2 µM | SW-620 > 100 µM | NCI-H23 > 100 µM
